For six molecules, IC50 results are on record in US11446287B2, “Compounds and methods for EP300 or CBP modulation and indications therefor” (Opna Immuno-Oncology SA, priority 2019, dated 2022).

The assay has as its target T1, Recombinant human CBP containing the bromodomain (CBP-BD (1043-1159)) (Homo sapiens, UniProt Q92793).
T1 construct: Recombinant human CBP bromodomain (CBP-BD (1043-1159)); made in house; host or cells: E. coli BL21-CodonPlus (DE3), modified pET vector
The assay can be described thus: CBP Alphascreen binding assay. The following applies: read-out: CREBBP (CBP) IC50. An outline of the steps: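 Buffer: 50 mM HEPES pH 7.5, 50 mM NaCl, 0.01% BSA, 0.01% Triton X-100, 2 mM DTT. The signal was normalised to plate controls and fitted with a four-parameter curve to give IC50.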

pIC50: −log10 of the molar value.

T1 sequence (Q92793 1081-1197): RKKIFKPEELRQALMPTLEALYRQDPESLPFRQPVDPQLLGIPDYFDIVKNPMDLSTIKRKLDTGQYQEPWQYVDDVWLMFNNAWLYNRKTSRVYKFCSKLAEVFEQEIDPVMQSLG

`Cc1noc(C)c1-c1cnc2c(c1)c(-c1cc(F)c(C(=O)O)cc1OC(F)(F)F)cn2-c1ccc(C2CC2)nc1` [P-0444, 4-(1-(6-cyclopropylpyridin-3-yl)-5-(3,5-dimethylisoxazol-4-yl)-1H-pyrrolo[2,3-b]pyridin-3-yl)-2-fluoro-5-(trifluoromethoxy)benzoic acid]: the negative logarithm of the IC50 (pIC50) was 6.00 to 10.00.
As for `CCOc1cc(C(=O)O)c(F)cc1-c1cn(C2CCN(C(=O)C(C)(C)C)CC2)c2ncc(-c3c(C)noc3C)cc12` [P-0445, 4-(5-(3,5-dimethylisoxazol-4-yl)-1-(1-pivaloylpiperidin-4-yl)-1H-pyrrolo[2,3-b]pyridin-3-yl)-5-ethoxy-2-fluorobenzoic acid], the pIC50 is 6.00 to 10.00.
With `CCOc1cc(C(=O)O)c(F)cc1-c1cn(C2CCN(CCC#N)CC2)c2ncc(-c3c(C)noc3C)cc12` [P-0446, 4-(1-(1-(2-cyanoethyl)piperidin-4-yl)-5-(3,5-dimethylisoxazol-4-yl)-1H-pyrrolo[2,3-b]pyridin-3-yl)-5-ethoxy-2-fluorobenzoic acid], the pIC50 is 6.00 to 10.00.
For `CCOc1cc(C(=O)O)c(F)cc1-c1cn(C2CCN(C(=O)CO)CC2)c2ncc(-c3c(C)noc3C)cc12` [P-0447, 4-(5-(3,5-dimethylisoxazol-4-yl)-1-(1-(2-hydroxyacetyl)piperidin-4-yl)-1H-pyrrolo[2,3-b]pyridin-3-yl)-5-ethoxy-2-fluorobenzoic acid], the pIC50 is 6.00 to 10.00.
Regarding `CCc1onc(C)c1-c1cnc2c(c1)c(-c1c(Cl)cc(C(=O)O)cc1OC(F)(F)F)cn2-c1ccc(C2CC2)nc1` [P-0448, 3-chloro-4-(1-(6-cyclopropylpyridin-3-yl)-5-(5-ethyl-3-methylisoxazol-4-yl)-1H-pyrrolo[2,3-b]pyridin-3-yl)-5-(trifluoromethoxy)benzoic acid], the pIC50 was 6.00 to 10.00.
As to `Cc1nnn(C)c1-c1cnc2c(c1)c(-c1cccc(C(=O)O)c1)cn2[C@@H](C)c1ccccn1` [P-0449, (S)-3-(5-(1,4-dimethyl-1H-1,2,3-triazol-5-yl)-1-(1-(pyridin-2-yl)ethyl)-1H-pyrrolo[2,3-b]pyridin-3-yl)benzoic acid], the pIC50 is 6.00 to 10.00.

By pIC50 is commonly meant the IC50 on a negative log10 scale, so that one unit is a factor of ten.
